In the NIST ThermoML archive (doi:10.1021/acs.jced.9b00752):
± gives the expanded uncertainty stated by the source.

Test: mn = molality of the nth substance listed, in mol/kg
Settings: 100 kPa, Liquid, Vibrating tube method

Question: Which results are given for `N[C@@H](Cc1ccccc1)C(=O)O` [L-phenylalanine] + O?
Answer: mass density (273.65 K, m1 = 0.0036): 1000.05 ± 0.12 kg/m3; mass density (273.65 K, m1 = 0.011): 1000.4 ± 0.12 kg/m3; mass density (273.65 K, m1 = 0.0183): 1000.75 ± 0.12 kg/m3; mass density (273.65 K, m1 = 0.033): 1001.44 ± 0.12 kg/m3; mass density (273.65 K, m1 = 0.0443): 1002.02 ± 0.12 kg/m3; mass density (273.65 K, m1 = 0.0536): 1002.42 ± 0.11 kg/m3; mass density (273.65 K, m1 = 0.0623): 1002.84 ± 0.12 kg/m3; mass density (273.65 K, m1 = 0.074): 1003.38 ± 0.12 kg/m3; mass density (273.65 K, m1 = 0.0855): 1003.95 ± 0.12 kg/m3; mass density (273.65 K, m1 = 0.0981): 1004.56 ± 0.12 kg/m3; mass density (273.65 K, m1 = 0.1158): 1005.44 ± 0.12 kg/m3; mass density (274.15 K, m1 = 0.0036): 1000.08 ± 0.12 kg/m3; mass density (274.15 K, m1 = 0.011): 1000.42 ± 0.12 kg/m3; mass density (274.15 K, m1 = 0.0183): 1000.77 ± 0.12 kg/m3; mass density (274.15 K, m1 = 0.033): 1001.46 ± 0.12 kg/m3; mass density (274.15 K, m1 = 0.0443): 1002.04 ± 0.12 kg/m3; mass density (274.15 K, m1 = 0.0536): 1002.44 ± 0.11 kg/m3; mass density (274.15 K, m1 = 0.0623): 1002.86 ± 0.12 kg/m3; mass density (274.15 K, m1 = 0.074): 1003.4 ± 0.12 kg/m3; mass density (274.15 K, m1 = 0.0855): 1003.96 ± 0.12 kg/m3; mass density (274.15 K, m1 = 0.0981): 1004.58 ± 0.12 kg/m3; mass density (274.15 K, m1 = 0.1158): 1005.46 ± 0.12 kg/m3; mass density (274.65 K, m1 = 0.0036): 1000.1 ± 0.12 kg/m3; mass density (274.65 K, m1 = 0.011): 1000.45 ± 0.12 kg/m3; mass density (274.65 K, m1 = 0.0183): 1000.79 ± 0.12 kg/m3; mass density (274.65 K, m1 = 0.033): 1001.48 ± 0.12 kg/m3; mass density (274.65 K, m1 = 0.0443): 1002.06 ± 0.12 kg/m3; mass density (274.65 K, m1 = 0.0536): 1002.46 ± 0.11 kg/m3; mass density (274.65 K, m1 = 0.0623): 1002.87 ± 0.12 kg/m3; mass density (274.65 K, m1 = 0.074): 1003.42 ± 0.12 kg/m3; mass density (274.65 K, m1 = 0.0855): 1003.98 ± 0.12 kg/m3; mass density (274.65 K, m1 = 0.0981): 1004.59 ± 0.12 kg/m3; mass density (274.65 K, m1 = 0.1158): 1005.47 ± 0.12 kg/m3; mass density (275.15 K, m1 = 0.0036): 1000.12 ± 0.12 kg/m3; mass density (275.15 K, m1 = 0.011): 1000.46 ± 0.12 kg/m3; mass density (275.15 K, m1 = 0.0183): 1000.81 ± 0.12 kg/m3; mass density (275.15 K, m1 = 0.033): 1001.49 ± 0.12 kg/m3; mass density (275.15 K, m1 = 0.0443): 1002.07 ± 0.12 kg/m3; mass density (275.15 K, m1 = 0.0536): 1002.47 ± 0.11 kg/m3; mass density (275.15 K, m1 = 0.0623): 1002.88 ± 0.12 kg/m3; mass density (275.15 K, m1 = 0.074): 1003.43 ± 0.12 kg/m3; mass density (275.15 K, m1 = 0.0855): 1003.99 ± 0.12 kg/m3; mass density (275.15 K, m1 = 0.0981): 1004.6 ± 0.12 kg/m3; mass density (275.15 K, m1 = 0.1158): 1005.47 ± 0.12 kg/m3; mass density (275.65 K, m1 = 0.0036): 1000.13 ± 0.12 kg/m3; mass density (275.65 K, m1 = 0.011): 1000.48 ± 0.12 kg/m3; mass density (275.65 K, m1 = 0.0183): 1000.82 ± 0.11 kg/m3; mass density (275.65 K, m1 = 0.033): 1001.5 ± 0.12 kg/m3; mass density (275.65 K, m1 = 0.0443): 1002.08 ± 0.12 kg/m3; mass density (275.65 K, m1 = 0.0536): 1002.48 ± 0.11 kg/m3; mass density (275.65 K, m1 = 0.0623): 1002.89 ± 0.12 kg/m3; mass density (275.65 K, m1 = 0.074): 1003.43 ± 0.12 kg/m3; mass density (275.65 K, m1 = 0.0855): 1003.99 ± 0.12 kg/m3; mass density (275.65 K, m1 = 0.0981): 1004.6 ± 0.12 kg/m3; mass density (275.65 K, m1 = 0.1158): 1005.47 ± 0.12 kg/m3; mass density (276.15 K, m1 = 0.0036): 1000.14 ± 0.12 kg/m3; mass density (276.15 K, m1 = 0.011): 1000.49 ± 0.12 kg/m3; mass density (276.15 K, m1 = 0.0183): 1000.83 ± 0.11 kg/m3; mass density (276.15 K, m1 = 0.033): 1001.51 ± 0.12 kg/m3; mass density (276.15 K, m1 = 0.0443): 1002.09 ± 0.12 kg/m3; mass density (276.15 K, m1 = 0.0536): 1002.48 ± 0.11 kg/m3; mass density (276.15 K, m1 = 0.0623): 1002.89 ± 0.12 kg/m3; mass density (276.15 K, m1 = 0.074): 1003.43 ± 0.12 kg/m3; mass density (276.15 K, m1 = 0.0855): 1004 ± 0.12 kg/m3; mass density (276.15 K, m1 = 0.0981): 1004.6 ± 0.12 kg/m3; mass density (276.15 K, m1 = 0.1158): 1005.47 ± 0.12 kg/m3; mass density (276.65 K, m1 = 0.0036): 1000.14 ± 0.12 kg/m3; mass density (276.65 K, m1 = 0.011): 1000.49 ± 0.12 kg/m3; mass density (276.65 K, m1 = 0.0183): 1000.83 ± 0.12 kg/m3; mass density (276.65 K, m1 = 0.033): 1001.51 ± 0.12 kg/m3; mass density (276.65 K, m1 = 0.0443): 1002.09 ± 0.12 kg/m3; mass density (276.65 K, m1 = 0.0536): 1002.48 ± 0.11 kg/m3; mass density (276.65 K, m1 = 0.0623): 1002.89 ± 0.12 kg/m3; mass density (276.65 K, m1 = 0.074): 1003.43 ± 0.12 kg/m3; mass density (276.65 K, m1 = 0.0855): 1003.99 ± 0.12 kg/m3; mass density (276.65 K, m1 = 0.0981): 1004.59 ± 0.12 kg/m3; mass density (276.65 K, m1 = 0.1158): 1005.46 ± 0.12 kg/m3; mass density (277.15 K, m1 = 0.0036): 1000.14 ± 0.12 kg/m3; mass density (277.15 K, m1 = 0.011): 1000.49 ± 0.11 kg/m3; mass density (277.15 K, m1 = 0.0183): 1000.83 ± 0.11 kg/m3; mass density (277.15 K, m1 = 0.033): 1001.51 ± 0.12 kg/m3; mass density (277.15 K, m1 = 0.0443): 1002.09 ± 0.12 kg/m3; mass density (277.15 K, m1 = 0.0536): 1002.47 ± 0.11 kg/m3; mass density (277.15 K, m1 = 0.0623): 1002.89 ± 0.12 kg/m3; mass density (277.15 K, m1 = 0.074): 1003.43 ± 0.12 kg/m3; mass density (277.15 K, m1 = 0.0855): 1003.98 ± 0.12 kg/m3; mass density (277.15 K, m1 = 0.0981): 1004.59 ± 0.12 kg/m3; mass density (277.15 K, m1 = 0.1158): 1005.45 ± 0.12 kg/m3; mass density (277.65 K, m1 = 0.0036): 1000.14 ± 0.12 kg/m3; mass density (277.65 K, m1 = 0.011): 1000.49 ± 0.11 kg/m3; mass density (277.65 K, m1 = 0.0183): 1000.83 ± 0.11 kg/m3; mass density (277.65 K, m1 = 0.033): 1001.5 ± 0.12 kg/m3; mass density (277.65 K, m1 = 0.0443): 1002.08 ± 0.12 kg/m3; mass density (277.65 K, m1 = 0.0536): 1002.47 ± 0.11 kg/m3; mass density (277.65 K, m1 = 0.0623): 1002.88 ± 0.12 kg/m3; mass density (277.65 K, m1 = 0.074): 1003.42 ± 0.12 kg/m3; mass density (277.65 K, m1 = 0.0855): 1003.97 ± 0.12 kg/m3; mass density (277.65 K, m1 = 0.0981): 1004.57 ± 0.12 kg/m3; mass density (277.65 K, m1 = 0.1158): 1005.44 ± 0.12 kg/m3; mass density (278.15 K, m1 = 0.0036): 1000.13 ± 0.11 kg/m3; mass density (278.15 K, m1 = 0.011): 1000.48 ± 0.11 kg/m3; mass density (278.15 K, m1 = 0.0183): 1000.82 ± 0.11 kg/m3; mass density (278.15 K, m1 = 0.033): 1001.49 ± 0.12 kg/m3; mass density (278.15 K, m1 = 0.0443): 1002.07 ± 0.12 kg/m3; mass density (278.15 K, m1 = 0.0536): 1002.46 ± 0.11 kg/m3; mass density (278.15 K, m1 = 0.0623): 1002.87 ± 0.12 kg/m3; mass density (278.15 K, m1 = 0.074): 1003.41 ± 0.12 kg/m3; mass density (278.15 K, m1 = 0.0855): 1003.96 ± 0.12 kg/m3; mass density (278.15 K, m1 = 0.0981): 1004.56 ± 0.12 kg/m3; mass density (278.15 K, m1 = 0.1158): 1005.42 ± 0.12 kg/m3
